In US20070092551A1, “Therapeutic agent” (TAKARA BIO INC., priority 2003, published 2007):
Read-outs that look alike come from different tables or passages of the source.

Key:
[1] = test system: mature adipocytes (3T3-L1 cells); experiment: Enhancing action on glucose uptake (2-deoxyglucose) into mature adipocytes; assay type: cell-based; settings: Mus musculus
[2] = Toxicity test, forcible oral administration for 3 consecutive days; assay type: in vivo; settings: female ICR mice, 1 g/kg forcibly orally once a day for 3 days, in CMC or olive oil
Procedure: The influence of 4-hydroxyderricin and xanthoangelol by forcible oral administration for 3 consecutive days was examined using female 12-week old ICR mice (Japan SLC, Inc.). 4-Hydroxyderricin or xanthoangelol was suspended or dissolved in a 0.5% (w/v) carboxymethyl cellulose solution (CMC) or an olive oil so as to have a concentration of 20% (w/v). The suspension or solution was forcibly orally administered once a day for 3 days in an amount of 5 mL per 1 kg body weight (1 g/kg in terms of 4-hydroxyderricin or xanthoangelol). Three cases were used for each group.

[3] = test system: type II diabetes model mice; experiment: Suppressive effects on incidence of diabetes (blend feed); assay type: in vivo, KK-Ay mice; settings: 0.15% blend feed; for Blood Glucose Level, Previous Day: male 5-week old KK-Ay mice, day before beginning of administration; for Blood Glucose Level, Previous Day / Amount of Drunk Water, Ninth to Fifteenth Day / Amount of Drunk Water, Second to Eighth Day / Blood Glucose Level, Fifteenth Day: mean ± standard error; for effects for suppressing the incidence of diabetes (in words) / changes in body weight, amount of feed taken and general symptoms / Amount of Drunk Water, Ninth to Fifteenth Day / Amount of Drunk Water, Second to Eighth Day / Blood Glucose Level, Fifteenth Day: male KK-Ay mice; for changes in body weight, amount of feed taken and general symptoms: experimental period
Procedure: The suppressive effects of xanthoangelol and 4-hydroxyderricin on incidence of diabetes were examined using type II diabetes model mice. Experiments were carried out with seven male 5-week old KK-Ay mice (CLEA Japan, Inc.) per group. Xanthoangelol and 4-hydroxyderricin were each mixed in a powder feed (CE-2: CLEA Japan, Inc.) so as to have a ratio of 0.15%, and the mice were fed with the blended power feed. The mice in the control group were fed with the powder feed (CE-2). On the day before the beginning of administration, and on the fifteenth day, the blood glucose level was determined in the same manner as in Example 88. In addition, as an index of the incidence of diabetes, amounts of drunk water from the second to eighth days and from the ninth to fifteenth days from the administration were determined, and an average amount of drunk water per day was calculated, respectively. By administration of a mixed feed with xanthoangelol or 4-hydroxyderricin, the suppression of increase in a blood glucose level was found. Further, the suppression of increase in the amount of drunk water which is an index of the incidence of diabetes was found. […] During the experimental period, no changes were found in body weight, amount of feed taken and general symptoms.

[4] = 3T3-L1, 30 μM, X=(S−N)/(P−N) of 2-deoxyglucose uptake, P=insulin 1 μg/mL, read-out: Enhancing Action on Glucose Uptake
[5] = 3T3-L1, 10 μM, X=(S−N)/(P−N) of 2-deoxyglucose uptake, P=insulin 1 μg/mL, read-out: Enhancing Action on Glucose Uptake
[6] = 3T3-L1, read-out: Enhancing Action on Glucose Uptake

| SMILES | activation at 30 µM [1, 4] [%] | activation at 10 µM [1, 5] [%] | cases of death [2] | change in general symptom [2] | Blood Glucose Level, Previous Day [3] [mg/dL] | effects for suppressing the incidence of diabetes (in words) [3] | changes in body weight, amount of feed taken and general symptoms [3] | Amount of Drunk Water, Ninth to Fifteenth Day [3] [mL/day] | Amount of Drunk Water, Second to Eighth Day [3] [mL/day] | Blood Glucose Level, Fifteenth Day [3] [mg/dL] | activation at 3 µM [1, 6] [%] | activation at 10 µM [1, 6] [%] | activation at 30 µM [1, 6] [%] | activation at 3 µM ([1]; 3T3-L1, 3 μM, X=(S−N)/(P−N) of 2-deoxyglucose uptake, P=insulin 1 μg/mL, read-out: Enhancing Action on Glucose Uptake) [%] |
| --- | --- | --- | --- | --- | --- | --- | --- | --- | --- | --- | --- | --- | --- | --- |
| COc1ccc(C(=O)/C=C/c2ccc(O)cc2)c2c1CC(O)C(C)(C)O2 (stereo not shown) [Xanthoangelol H] | 30 to 60 |  |  |  |  |  |  |  |  |  |  |  |  |  |
| CC(C)=CCC/C(C)=C/Cc1c(O)ccc(C(=O)/C=C/c2ccc(O)cc2)c1O [Xanthoangelol, 4,2′,4′-Trihydroxy-3′-geranylchalcone] | > 100 | 30 to 60 | No cases of death | no change | 232 ± 11 | effects for suppressing the incidence of diabetes was found | no changes | 14.6 ± 2.0 | 10.3 ± 1.3 | 426 ± 39 |  |  |  |  |
| COc1ccc(C(=O)/C=C/c2ccc(O)cc2)c(O)c1CC=C(C)C [4-Hydroxyderricin, 4,2′-Dihydroxy-3′-prenyl-4′-methoxychalcone] |  |  | No cases of death | no change | 226 ± 14 | effects for suppressing the incidence of diabetes was found | no changes | 10.0 ± 0.6 | 7.6 ± 0.2 | 354 ± 24 | 60 to 100 | > 100 | > 100 |  |
| COc1ccc(C(=O)/C=C/c2ccc(O)cc2)c(O)c1C/C=C(\C)CCC=C(C)C [Xanthoangelol F, 4,2′-Dihydroxy-3′-geranyl-4′-methoxychalcone] | > 100 | > 100 |  |  |  |  |  |  |  |  |  |  |  | 30 to 60 |
